pIC50: −log10 of the molar value.
Target: T1, Recombinant human HSP90α (Homo sapiens, UniProt P07900)
T1 construct: host or cells: E. coli
Assay: Radioligand filter binding test with [3H]17AAG for the measurement of HSP90 inhibitors
Settings: competition with [3H]17AAG 0.08 μM; HSP90 1.5 μg/assay; 22° C., 30 min; read-out: IC50 (HSP90 inhibition)
From the text: Test Method for the Measurement of HSP90 Inhibitors
The binding of geldanamycin or 17-allylamino-17-demethoxygeldanamycin (17AAG) to HSP90 and competitive inhibition thereof can be utilised in order to determine the inhibitory activity of the compounds according to the invention (Carreras et al. 2003, Chiosis et al. 2002).
In the specific case, a radioligand filter binding test is used. The radioligand used here is tritium-labelled 17-allylaminogeldanamycin, [3H]17AAG. This filter binding test allows a targeted search for inhibitors which interfere with the ATP binding site.
Recombinant human HSP90α (E. coli expressed, 95% purity);
[3H]17AAG (17-allylaminogeldanamycin, [allylamino-2,3-^3H. Specific activity: 1.11×10^12 Bq/mmol (Moravek, MT-1717);
HEPES filter buffer (50 mM HEPES, pH 7.0, 5 mM MgCl2, BSA 0.01%)
Multiscreen FB (1 μm) filter plate (Millipore, MAFBNOB 50).
The 96-well microtitre filter plates are firstly irrigated and coated with 0.1% of polyethyleneimine.
The test is carried out under the following conditions:
Reaction temperature 22° C.
Reaction time: 30 min., shaking at 800 rpm
50 mM HEPES HCl, pH 7.0, 5 mM MgCl2, 0.01% (w/v) of BSA
At the end of the reaction, the supernatant in the filter plate is removed by suction with the aid of a vacuum manifold (Multiscreen Separation System, Millipore), and the filter is washed twice.
The filter plates are then measured in a beta counter (Microbeta, Wallac) with scintillator (Microscint 20, Packard).
“% of control” is determined from the “counts per minutes” values, and the IC-50 value of a compound is calculated therefrom.

Compound | pIC50
CN(CCO)Cc1ccccc1-c1ccc2nc(N)nc(C(=O)N3Cc4ccccc4C3)c2c1 | 6.00 to 8.00
CCN(CCO)Cc1ccccc1-c1ccc2nc(N)nc(C(=O)N3Cc4ccccc4C3)c2c1 | 6.00 to 8.00
Nc1nc(C(=O)N2Cc3ccccc3C2)c2cc(-c3ccccc3CN3CCC(O)CC3)ccc2n1 | 6.00 to 8.00
CC(C)(C)NCc1ccccc1-c1ccc2nc(N)nc(C(=O)N3Cc4ccccc4C3)c2c1 | 6.00 to 8.00
Nc1nc(C(=O)N2Cc3ccccc3C2)c2cc(-c3ccccc3CN3CCCC3)ccc2n1 | 6.00 to 8.00
CC1CCCN1Cc1ccccc1-c1ccc2nc(N)nc(C(=O)N3Cc4ccccc4C3)c2c1 (centres unmarked) | 6.00 to 8.00
Nc1nc(C(=O)N2Cc3ccccc3C2)c2cc(-c3ccccc3CN3CCC(CO)C3)ccc2n1 (centres unmarked) | 6.00 to 8.00
Nc1nc(C(=O)N2Cc3ccccc3C2)c2cc(-c3ccccc3CN3CCC(O)C3)ccc2n1 (centres unmarked) | 6.00 to 8.00
Nc1nc(C(=O)N2Cc3ccccc3C2)c2cc(-c3ccccc3CN3CCC(N)C3)ccc2n1 (centres unmarked) | 6.00 to 8.00
CCN(C)Cc1ccccc1-c1ccc2nc(N)nc(C(=O)N3Cc4ccccc4C3)c2c1 | 6.00 to 8.00
CCN(CC)Cc1ccccc1-c1ccc2nc(N)nc(C(=O)N3Cc4ccccc4C3)c2c1 | 6.00 to 8.00
CNC(=O)C1CCCN1Cc1ccccc1-c1ccc2nc(N)nc(C(=O)N3Cc4ccccc4C3)c2c1 (centres unmarked) | 6.00 to 8.00
Nc1nc(C(=O)N2Cc3ccccc3C2)c2cc(-c3ccccc3CN3CCCC3C(=O)NCCO)ccc2n1 (centres unmarked) | 6.00 to 8.00
Nc1nc(C(=O)N2Cc3ccccc3C2)c2cc(-c3ccccc3CNC3CC3)ccc2n1 | 6.00 to 8.00
Nc1nc(C(=O)N2Cc3ccccc3C2)c2cc(-c3ccccc3CNC3CCC3)ccc2n1 | 6.00 to 8.00
Nc1nc(C(=O)N2Cc3ccccc3C2)c2cc(-c3ccccc3CN3CCC(F)(F)C3)ccc2n1 | 6.00 to 8.00
CC1CCC(C)N1Cc1ccccc1-c1ccc2nc(N)nc(C(=O)N3Cc4ccccc4C3)c2c1 (centres unmarked) | 6.00 to 8.00
Nc1nc(C(=O)N2Cc3ccccc3C2)c2cc(-c3ccccc3CN3CC[C@H](F)C3)ccc2n1 | 6.00 to 8.00
C[C@@H]1CCCN1Cc1ccccc1-c1ccc2nc(N)nc(C(=O)N3Cc4ccccc4C3)c2c1 | 6.00 to 8.00
CC(C)(C)NCc1cc(F)ccc1-c1ccc2nc(N)nc(C(=O)N3Cc4ccccc4C3)c2c1 | 6.00 to 8.00
CC1CCCN1Cc1cc(F)ccc1-c1ccc2nc(N)nc(C(=O)N3Cc4ccccc4C3)c2c1 (centres unmarked) | 6.00 to 8.00
CC1CCCN1Cc1ccc(F)cc1-c1ccc2nc(N)nc(C(=O)N3Cc4ccccc4C3)c2c1 (centres unmarked) | 6.00 to 8.00

Compound | pIC50
CC(C)(C)NCc1ccc(F)cc1-c1ccc2nc(N)nc(C(=O)N3Cc4ccccc4C3)c2c1 | 6.00 to 8.00
NC(=O)CNCc1ccccc1-c1ccc2nc(N)nc(C(=O)N3Cc4ccccc4C3)c2c1 | 6.00 to 8.00
Nc1nc(C(=O)N2Cc3ccccc3C2)c2cc(-c3ccccc3CN(CCO)CCO)ccc2n1 | 6.00 to 8.00
C[C@H]1CCCN1Cc1ccccc1-c1ccc2nc(N)nc(C(=O)N3Cc4ccccc4C3)c2c1 | 6.00 to 8.00
CN(Cc1ccccc1-c1ccc2nc(N)nc(C(=O)N3Cc4ccccc4C3)c2c1)C1CC1 | 6.00 to 8.00
CCN(C)Cc1ccc(F)cc1-c1ccc2nc(N)nc(C(=O)N3Cc4ccccc4C3)c2c1 | 6.00 to 8.00
CN1CCN(Cc2ccc(F)cc2-c2ccc3nc(N)nc(C(=O)N4Cc5ccccc5C4)c3c2)CC1 | 6.00 to 8.00
CN1CCN(Cc2cc(F)ccc2-c2ccc3nc(N)nc(C(=O)N4Cc5ccccc5C4)c3c2)CC1 | 6.00 to 8.00
CCN(CCO)Cc1ccc(F)cc1-c1ccc2nc(N)nc(C(=O)N3Cc4ccccc4C3)c2c1 | 6.00 to 8.00
CC(C)(C)NCc1cc(F)c(F)cc1-c1ccc2nc(N)nc(C(=O)N3Cc4ccccc4C3)c2c1 | 6.00 to 8.00
CCN(C)Cc1cc(F)c(F)cc1-c1ccc2nc(N)nc(C(=O)N3Cc4ccccc4C3)c2c1 | 6.00 to 8.00
CCN(CC)Cc1cc(F)c(F)cc1-c1ccc2nc(N)nc(C(=O)N3Cc4ccccc4C3)c2c1 | 6.00 to 8.00
Nc1nc(C(=O)N2Cc3ccccc3C2)c2cc(-c3cc(F)c(F)cc3CN3CCCC3)ccc2n1 | 6.00 to 8.00
CC1CCC(C)N1Cc1cc(F)c(F)cc1-c1ccc2nc(N)nc(C(=O)N3Cc4ccccc4C3)c2c1 (centres unmarked) | 6.00 to 8.00
CC1CCCN1Cc1cc(F)c(F)cc1-c1ccc2nc(N)nc(C(=O)N3Cc4ccccc4C3)c2c1 (centres unmarked) | 6.00 to 8.00
CN(Cc1cc(F)c(F)cc1-c1ccc2nc(N)nc(C(=O)N3Cc4ccccc4C3)c2c1)C(C)(C)C | 6.00 to 8.00
CN1CCN(Cc2cc(F)c(F)cc2-c2ccc3nc(N)nc(C(=O)N4Cc5ccccc5C4)c3c2)CC1 | 6.00 to 8.00
CCN(CC)Cc1ccc(F)cc1-c1ccc2nc(N)nc(C(=O)N3Cc4ccccc4C3)c2c1 | 6.00 to 8.00
Nc1nc(C(=O)N2Cc3ccccc3C2)c2cc(-c3cc(F)ccc3CN3CCC(O)CC3)ccc2n1 | 6.00 to 8.00
CC(C)(C)NCc1cc2c(cc1-c1ccc3nc(N)nc(C(=O)N4Cc5ccccc5C4)c3c1)OCO2 | 6.00 to 8.00
COc1cc(CO)c(-c2ccc3nc(N)nc(C(=O)N4Cc5ccccc5C4)c3c2)cc1OC | 5.00 to 6.00
NCc1cc(F)c(F)cc1-c1ccc2nc(N)nc(C(=O)N3Cc4ccccc4C3)c2c1 | 6.00 to 8.00

Compound | pIC50
NCCC(=O)NCc1cc(F)c(F)cc1-c1ccc2nc(N)nc(C(=O)N3Cc4ccccc4C3)c2c1 | 6.00 to 8.00
CN(C)CCC(=O)NCc1cc(F)c(F)cc1-c1ccc2nc(N)nc(C(=O)N3Cc4ccccc4C3)c2c1 | 6.00 to 8.00
NCCC(=O)OCc1cc(F)c(F)cc1-c1ccc2nc(N)nc(C(=O)N3Cc4ccccc4C3)c2c1 | 6.00 to 8.00
CN(C)CCCOCc1cc(F)c(F)cc1-c1ccc2nc(N)nc(C(=O)N3Cc4ccccc4C3)c2c1 | 6.00 to 8.00
CN(C)CCOCc1cc(F)c(F)cc1-c1ccc2nc(N)nc(C(=O)N3Cc4ccccc4C3)c2c1 | 6.00 to 8.00
NCCCOCc1cc(F)c(F)cc1-c1ccc2nc(N)nc(C(=O)N3Cc4ccccc4C3)c2c1 | 6.00 to 8.00
Nc1nc(C(=O)N2Cc3ccccc3C2)c2cc(-c3cc(F)c(F)cc3COCCO)ccc2n1 | 6.00 to 8.00
Nc1nc(C(=O)N2Cc3ccccc3C2)c2cc(-c3cc(F)c(F)cc3COCCOCCOCCO)ccc2n1 | 6.00 to 8.00
NCCC[C@H](N)C(=O)OCc1cc(F)c(F)cc1-c1ccc2nc(N)nc(C(=O)N3Cc4ccccc4C3)c2c1 | 6.00 to 8.00
CN(C)CCC(=O)OCc1cc(F)c(F)cc1-c1ccc2nc(N)nc(C(=O)N3Cc4ccccc4C3)c2c1 | 6.00 to 8.00
NCCCC[C@H](N)C(=O)OCc1cc(F)c(F)cc1-c1ccc2nc(N)nc(C(=O)N3Cc4ccccc4C3)c2c1 | 6.00 to 8.00
NOCc1cc(F)c(F)cc1-c1ccc2nc(N)nc(C(=O)N3Cc4ccccc4C3)c2c1 | 6.00 to 8.00
Nc1nc(C(=O)N2Cc3ccccc3C2)c2cc(-c3cc(F)c(F)cc3COP(=O)(O)O)ccc2n1 | 6.00 to 8.00
NCCCCC(N)C(=O)OCc1ccc(F)cc1-c1ccc2nc(N)nc(C(=O)N3Cc4ccccc4C3)c2c1 (centres unmarked) | 6.00 to 8.00
CC(C)(C)OP(=O)(OCc1cc(F)c(F)cc1-c1ccc2nc(N)nc(C(=O)N3Cc4ccccc4C3)c2c1)OC(C)(C)C | 6.00 to 8.00
CC(C)CC(N)C(=O)OCc1cc(F)c(F)cc1-c1ccc2nc(N)nc(C(=O)N3Cc4ccccc4C3)c2c1 (centres unmarked) | 6.00 to 8.00
CC(C)(C)C(=O)OCc1cc(F)c(F)cc1-c1ccc2nc(N)nc(C(=O)N3Cc4ccccc4C3)c2c1 | 6.00 to 8.00
CC(C)(C)OC(=O)NCCCCCC(=O)OCc1cc(F)c(F)cc1-c1ccc2nc(N)nc(C(=O)N3Cc4ccccc4C3)c2c1 | 6.00 to 8.00
CC(C)(C)OC(=O)N1CCC[C@H]1C(=O)OCc1cc(F)c(F)cc1-c1ccc2nc(N)nc(C(=O)N3Cc4ccccc4C3)c2c1 | 6.00 to 8.00
NCCCC[C@H](N)C(=O)OCc1ccccc1-c1ccc2nc(N)nc(C(=O)N3Cc4ccccc4C3)c2c1 | 6.00 to 8.00
Nc1nc(C(=O)N2Cc3ccccc3C2)c2cc(-c3cc(F)c(F)cc3COC(=O)[C@@H]3CCCN3)ccc2n1 | 6.00 to 8.00

Source: patent US8791129B2, “Phenylquinazoline derivatives” (Merck Patent GmbH, priority 2010, dated 2014)
